In patent US20250154163A1, “Pyrimidinone-Containing 17-Beta-Hydroxysteroid Dehydrogenase Type 13 Inhibitors” (ENANTA PHARMACEUTICALS, INC., priority 2023, published 2025):

Biological target: T1, human HSD17β13 (stable HEK293T cell line overexpressing human HSD17β13) (Homo sapiens, UniProt Q7Z5P4)
T1 construct: expressed in transfected cells
T1 sequence (Q7Z5P4 20-300): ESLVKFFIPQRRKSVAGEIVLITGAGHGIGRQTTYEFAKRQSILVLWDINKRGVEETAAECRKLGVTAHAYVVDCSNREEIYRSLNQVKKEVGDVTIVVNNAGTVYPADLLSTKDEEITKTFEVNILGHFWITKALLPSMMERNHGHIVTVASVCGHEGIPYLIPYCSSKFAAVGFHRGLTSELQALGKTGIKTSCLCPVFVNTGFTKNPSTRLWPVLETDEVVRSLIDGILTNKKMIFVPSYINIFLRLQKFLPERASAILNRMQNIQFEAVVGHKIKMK
Assay: HSD17β13 inhibitor cell-based screening assay (conversion of estradiol-d2 to estrone-d2 by RF-MS)
Settings: conversion of estradiol-d2 to estrone-d2 after 24 hours
Procedure: The purpose of this cell-based assay is to determine the cellular efficacy (IC50) of HSD17β13 inhibitors in a stable HEK293 T cell line overexpressing human HSD17β13. The assay measures by Rapid Fire mass-spectrometry (RF-MS) the conversion of estradiol-d2 to estrone-d2. Cytotoxicity was also assessed via luminescent signal generated by the ATPlite viability assay reagent. To screen compounds for HSD17013 inhibition, black 384-well plates were seeded with 1000× concentration of compounds in a 9-point 1:3 dilution curve (final top concentration of 10 μM) as well as 1000× concentration of 17β-estradiol-d2 (5 μM final concentration) added to all wells. HEK293T cells stably overexpressing human HSD17013 and the parent HEK293T cell lines were then seeded in the plates on top of the compounds and substrate in MEM media containing 1% charcoal/dextran-treated FBS. Supernatant is collected and immediately frozen after 24 hours of incubation, and conversion of estradiol-d2 to estrone-d2 is measured at Pure Honey by RF-MS. The remaining media in the plate was removed from the wells and replaced with ATPlite viability assay reagent. Luminescent signal from the ATPlite reagent was measured on the Envision plate reader. 10 μL of 10 mM compounds stocks (1000×) dissolved in DMSO were pipetted into the appropriate wells on the 384 LDV plate (Labcyte; cat. no.: LP-0200) and the appropriate volumes of DMSO solvent were included onto an intermediate plate to further dilute the compound stocks to complete the 9-pt dose curve (final top concentration of 10 μM). 10 μL per well of 5 mM estradiol-d2 (1000×) (Cayman; item no.: 9002846) (5 μM final concentration) dissolved in DMSO was seeded into the appropriate number of wells on the same source plate as the compounds. The Echo 650 (Labcyte) was used for compound dilutions and dispensing both the compounds and the substrate onto a dry 384-well black assay plate (Falcon/Corning; cat. no.:353962). Afterwards, cells were immediately counted and seeded onto the plate. Cells were cultured for expansion in EMEM (ATCC; cat. no.: 30-2003)+10% FBS (Hyclone; cat. no.: SH3007003)+1×PenStrep (Gibco; cat. no.: 15140-122). All media for stable cell line overexpressing HSD17013 also included […] zeocin (Invitrogen; cat. no.: 46-0509) for selection. To prepare cells for seeding into the 384-well assay plate, cells were trypsinized for 3 minutes in the incubator. The Trypsin-EDTA (0.25%) (Gibco; cat. no.: 25200056) was neutralized with EMEM complete culture medium warmed to 37° C. Cells were then centrifugated at 300×g for 5 minutes at room temperature. The cell pellet was resuspended in phenol red-free MEM (Gibco; cat. no.: 51200-038)+1% charcoal/dextran-treated FBS (Hyclone; cat. no.: SH3006803) and 1×PenStrep warmed to 37° C. Cells were then counted using the TC20 automated cell-counter (Bio-Rad) and disposable duel chamber counting slides (Bio-Rad; cat. no.: 1450016) for a cell density of 1.5E5 cells/mL to then seed into the assay plate at 7.5E3 cells/well with 50 μL of media per well. Prior to the 24-hour time point, a solution of 1% formic acid (10×) (Honeywell; cat. no.: 94318) in MEM phenol red-free MEM+1% charcoal/dextran-treated FBS and 1×PenStrep was made. ATPlite luminescent ATP detection reagent (PerkinElmer; cat. no.: 6016739) was prepared according to the manufacturer's instructions. A new 384-well Falcon plate (collection plate) was seeded with 2 μL per well of 10× formic acid and then 18 μL of cell supernatant was added onto the formic acid, resulting in a 20 μL per well solution of 0.1% formic acid (1×) in supernatant. The plate of collected supernatant was immediately frozen on dry ice before being stored at −80° C. The collection plate was shipped to Momentum Biotechnologies for analysis. The remaining supernatant in the assay plate was discarded and 25 μL of ATPlite reagent was added to each well. […]

Row | Compound | IC50 [nM]
1 | COc1ccc(-c2nc3sc4c(S(=O)(=O)O)cccc4c3c(=O)n2Cc2cnco2)c(C2CC2)c1 [Example 12, 2-(2-cyclopropyl-4-methoxyphenyl)-3-(oxazol-5-ylmethyl)-4-oxo-3,4-dihydrobenzo[4,5]thieno[2,3-d]pyrimidine-8-sulfonic acid] | 1000 to 100000
2 | COc1ccc(-c2nc3sc4c(OC(C)=O)c(Cl)ccc4c3c(=O)n2Cc2cnco2)c(C2CC2)c1 [Example 27, 7-chloro-2-(2-cyclopropyl-4-methoxyphenyl)-3-(oxazol-5-ylmethyl)-4-oxo-3,4-dihydrobenzo[4,5]thieno[2,3-d]pyrimidin-8-yl acetate] | < 100
3 | COc1ccc(-c2nc3sc4c(O)c(C=O)ccc4c3c(=O)n2Cc2cnco2)c(C2CC2)c1 [Example 31, 2-(2-cyclopropyl-4-methoxyphenyl)-8-hydroxy-3-(oxazol-5-ylmethyl)-4-oxo-3,4-dihydrobenzo[4,5]thieno[2,3-d]pyrimidine-7-carbaldehyde] | 1000 to 100000
4 | COc1ccc(-c2nc3sc4c(O)c(C#N)ccc4c3c(=O)n2Cc2cnco2)c(C2CC2)c1 [Example 33, 2-(2-cyclopropyl-4-methoxyphenyl)-8-hydroxy-3-(oxazol-5-ylmethyl)-4-oxo-3,4-dihydrobenzo[4,5]thieno[2,3-d]pyrimidine-7-carbonitrile] | 500 to 1000
5 | COc1ccc(-c2nc3sc4c(O)c(C(=O)O)ccc4c3c(=O)n2Cc2cnco2)c(C2CC2)c1 [Example 34, 2-(2-cyclopropyl-4-methoxyphenyl)-8-hydroxy-3-(oxazol-5-ylmethyl)-4-oxo-3,4-dihydrobenzo[4,5]thieno[2,3-d]pyrimidine-7-carboxylic acid] | 1000 to 100000
6 | COc1ccc(-c2nc3sc4c(O)c(-c5ccccc5)ccc4c3c(=O)n2Cc2cnco2)c(C2CC2)c1 [Example 35, 2-(2-cyclopropyl-4-methoxyphenyl)-8-hydroxy-3-(oxazol-5-ylmethyl)-7-phenylbenzo[4,5]thieno[2,3-d]pyrimidin-4(3H)-one] | 1000 to 100000
7 | COc1ccc(-c2nc3sc4c(Br)c(O)ccc4c3c(=O)n2Cc2cnco2)c(C2CC2)c1 [Example 37, 8-bromo-2-(2-cyclopropyl-4-methoxyphenyl)-7-hydroxy-3-(oxazol-5-ylmethyl)benzo[4,5]thieno[2,3-d]pyrimidin-4(3H)-one] | 1000 to 100000
8 | COc1ccc(-c2nc3sc4c(ccc5oc(=O)[nH]c54)c3c(=O)n2Cc2cnco2)c(C2CC2)c1 [Example 38, 8-(2-cyclopropyl-4-methoxyphenyl)-7-(oxazol-5-ylmethyl)oxazolo[4″,5″:3′,4′]benzo[1′,2′:4,5]thieno[2,3-d]pyrimidine-2,6(1H,7H)-dione] | 1000 to 100000
9 | COC(=O)Cn1c(-c2ccc(OC)cc2C2CC2)nc2sc3c(O)c(Cl)ccc3c2c1=O [Example 45, methyl 2-(7-chloro-2-(2-cyclopropyl-4-methoxyphenyl)-8-hydroxy-4-oxobenzo[4,5]thieno[2,3-d]pyrimidin-3(4H)-yl)acetate] | 100 to 500
10 | COc1ccc(-c2nc3sc4c(O)c(Cl)ccc4c3c(=O)n2CC(=O)O)c(C2CC2)c1 [Example 46, 2-(7-chloro-2-(2-cyclopropyl-4-methoxyphenyl)-8-hydroxy-4-oxobenzo[4,5]thieno[2,3-d]pyrimidin-3(4H)-yl)acetic acid] | 1000 to 100000
11 | COc1ccc(-c2nc3sc4c(O)c(Cl)ccc4c3c(=O)n2Cc2ccno2)c(C2CC2)c1 [Example 47, 7-chloro-2-(2-cyclopropyl-4-methoxyphenyl)-8-hydroxy-3-(isoxazol-5-ylmethyl)benzo[4,5]thieno[2,3-d]pyrimidin-4(3H)-one] | < 100
12 | COc1ccc(-c2nc3sc4c(O)c(Cl)ccc4c3c(=O)n2Cc2cnc(C3CC3)o2)c(C2CC2)c1 [Example 49, 7-chloro-2-(2-cyclopropyl-4-methoxyphenyl)-3-((2-cyclopropyloxazol-5-yl)methyl)-8-hydroxybenzo[4,5]thieno[2,3-d]pyrimidin-4(3H)-one] | < 100
13 | COc1ccc(-c2nc3sc4c(O)c(Cl)ccc4c3c(=O)n2CC(=O)NCCO)c(C2CC2)c1 [Example 51, 2-(7-chloro-2-(2-cyclopropyl-4-methoxyphenyl)-8-hydroxy-4-oxobenzo[4,5]thieno[2,3-d]pyrimidin-3(4H)-yl)-N-(2-hydroxyethyl)acetamide] | 500 to 1000
14 | COc1ccc(-c2nc3sc4c(O)c(Cl)ccc4c3c(=O)n2Cc2sc(C)nc2C)c(C2CC2)c1 [Example 53, 7-chloro-2-(2-cyclopropyl-4-methoxyphenyl)-3-((2,4-dimethylthiazol-5-yl)methyl)-8-hydroxybenzo[4,5]thieno[2,3-d]pyrimidin-4(3H)-one] | < 100
15 | COc1ccc(-c2nc3sc4c(O)c(Cl)ccc4c3c(=O)n2CC2=NCCO2)c(C2CC2)c1 [Example 54, 7-chloro-2-(2-cyclopropyl-4-methoxyphenyl)-3-((4,5-dihydrooxazol-2-yl)methyl)-8-hydroxybenzo[4,5]thieno[2,3-d]pyrimidin-4(3H)-one] | 100 to 500
16 | COc1ccc(-c2nc3sc4c(O)ccc(F)c4c3c(=O)n2Cc2cnco2)c(C2CC2)c1 [Example 55, 2-(2-cyclopropyl-4-methoxyphenyl)-5-fluoro-8-hydroxy-3-(oxazol-5-ylmethyl)benzo[4,5]thieno[2,3-d]pyrimidin-4(3H)-one] | < 100
17 | COc1ccc(-c2nc3sc4c(O)c(F)ccc4c3c(=O)n2Cc2cnco2)c(C2CC2)c1 [Example 56, 2-(2-cyclopropyl-4-methoxyphenyl)-7-fluoro-8-hydroxy-3-(oxazol-5-ylmethyl)benzo[4,5]thieno[2,3-d]pyrimidin-4(3H)-one] | < 100
18 | COc1ccc(-c2nc3sc4c(O)c(Cl)ccc4c3c(=O)n2Cc2cnoc2)c(C2CC2)c1 [Example 57, 7-chloro-2-(2-cyclopropyl-4-methoxyphenyl)-8-hydroxy-3-(isoxazol-4-ylmethyl)benzo[4,5]thieno[2,3-d]pyrimidin-4(3H)-one] | < 100
19 | COc1ccc(-c2nc3sc4c(O)c(Cl)ccc4c3c(=O)n2Cc2cnc(C)nc2)c(C2CC2)c1 [Example 58, 7-chloro-2-(2-cyclopropyl-4-methoxyphenyl)-8-hydroxy-3-((2-methylpyrimidin-5-yl)methyl)benzo[4,5]thieno[2,3-d]pyrimidin-4(3H)-one] | < 100
20 | COc1ccc(-c2nc3sc4c(O)c(Cl)ccc4c3c(=O)n2Cc2cnc(C)o2)c(C2CC2)c1 [Example 59, 7-chloro-2-(2-cyclopropyl-4-methoxyphenyl)-8-hydroxy-3-((2-methyloxazol-5-yl)methyl)benzo[4,5]thieno[2,3-d]pyrimidin-4(3H)-one] | < 100
21 | Cc1cc(Cn2c(-c3cc(F)c(F)cc3C3CC3)nc3sc4c(O)c(Cl)ccc4c3c2=O)on1 [Example 60, 7-chloro-2-(2-cyclopropyl-4,5-difluorophenyl)-8-hydroxy-3-((3-methylisoxazol-5-yl)methyl)benzo[4,5]thieno[2,3-d]pyrimidin-4(3H)-one] | < 100
